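Test compounds were applied to cells in 96-well plates for 48 hours at 5 doses. At the TGI there is no net growth.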
Columns and labels:
Test in all cases: NCI tumour cell line growth inhibition, 48 h
BT-549 breast = system: BT-549 breast
T-47D breast = system: T-47D breast
HOP-62 NSCLC = system: HOP-62 NSCLC
786-0 renal = system: 786-0 renal
DU-145 prostate = system: DU-145 prostate
KM12 colon = system: KM12 colon
MDA-N = system: MDA-N
MCF7 breast = system: MCF7 breast
ACHN renal = system: ACHN renal
HT29 colon = system: HT29 colon
HCT-15 colon = system: HCT-15 colon
SK-MEL-2 melanoma = system: SK-MEL-2 melanoma
SF-295 CNS = system: SF-295 CNS
OVCAR-4 ovarian = system: OVCAR-4 ovarian
HCT-116 colon = system: HCT-116 colon
SW-620 colon = system: SW-620 colon
SR leukemia = system: SR leukemia
UACC-62 melanoma = system: UACC-62 melanoma
TK-10 renal = system: TK-10 renal
UO-31 renal = system: UO-31 renal
EKVX NSCLC = system: EKVX NSCLC
SF-268 CNS = system: SF-268 CNS
HCC-2998 colon = system: HCC-2998 colon
M14 melanoma = system: M14 melanoma
NCI-H460 lung = system: NCI-H460 lung
NCI-H23 lung = system: NCI-H23 lung
K-562 leukemia = system: K-562 leukemia
MALME-3M melanoma = system: MALME-3M melanoma
SF-539 CNS = system: SF-539 CNS
IGROV1 ovarian = system: IGROV1 ovarian
SK-OV-3 ovarian = system: SK-OV-3 ovarian
A549 NSCLC = system: A549 NSCLC
LOX IMVI melanoma = system: LOX IMVI melanoma
SNB-75 CNS = system: SNB-75 CNS
HL-60(TB) leukemia = system: HL-60(TB) leukemia
RXF 393 renal = system: RXF 393 renal
NCI/ADR-RES ovarian = system: NCI/ADR-RES ovarian
OVCAR-5 ovarian = system: OVCAR-5 ovarian
NCI-H522 lung = system: NCI-H522 lung
HS 578T breast = system: HS 578T breast
SNB-19 CNS = system: SNB-19 CNS
CCRF-CEM leukemia = system: CCRF-CEM leukemia
PC-3 prostate = system: PC-3 prostate
MDA-MB-231 breast = system: MDA-MB-231 breast
OVCAR-3 ovarian = system: OVCAR-3 ovarian
COLO 205 colon = system: COLO 205 colon
SK-MEL-5 melanoma = system: SK-MEL-5 melanoma
RPMI-8226 leukemia = system: RPMI-8226 leukemia
CAKI-1 renal = system: CAKI-1 renal
HOP-92 NSCLC = system: HOP-92 NSCLC
UACC-257 melanoma = system: UACC-257 melanoma
U251 CNS = system: U251 CNS
A498 renal = system: A498 renal
NCI-H226 lung = system: NCI-H226 lung
SN12C renal = system: SN12C renal
SK-MEL-28 melanoma = system: SK-MEL-28 melanoma
MDA-MB-435 = system: MDA-MB-435
OVCAR-8 ovarian = system: OVCAR-8 ovarian
MOLT-4 leukemia = system: MOLT-4 leukemia

Measured: TGI

CON[N+]([O-])=NC(C)C
> 100 µM: BT-549 breast | T-47D breast | HOP-62 NSCLC | 786-0 renal | DU-145 prostate | KM12 colon | MDA-N | MCF7 breast | ACHN renal | HT29 colon | HCT-15 colon | SK-MEL-2 melanoma | SF-295 CNS | OVCAR-4 ovarian | HCT-116 colon | SW-620 colon | SR leukemia | UACC-62 melanoma | TK-10 renal | UO-31 renal | EKVX NSCLC | SF-268 CNS | HCC-2998 colon | M14 melanoma | NCI-H460 lung | NCI-H23 lung | K-562 leukemia | MALME-3M melanoma | SF-539 CNS | IGROV1 ovarian | SK-OV-3 ovarian | A549 NSCLC | LOX IMVI melanoma | SNB-75 CNS | HL-60(TB) leukemia | RXF 393 renal | NCI/ADR-RES ovarian | OVCAR-5 ovarian | NCI-H522 lung | HS 578T breast | SNB-19 CNS | CCRF-CEM leukemia | PC-3 prostate | MDA-MB-231 breast | OVCAR-3 ovarian | COLO 205 colon | SK-MEL-5 melanoma | RPMI-8226 leukemia | CAKI-1 renal | HOP-92 NSCLC | UACC-257 melanoma | U251 CNS | A498 renal | NCI-H226 lung | SN12C renal | SK-MEL-28 melanoma | MDA-MB-435 | OVCAR-8 ovarian | MOLT-4 leukemia

NS(=O)(=O)c1ccc(NC(=O)c2ccc3nc4ccccc4c(Nc4ccc(S(N)(=O)=O)cc4)c3c2)cc1
> 100 µM: BT-549 breast | T-47D breast | HOP-62 NSCLC | 786-0 renal | DU-145 prostate | KM12 colon | MDA-N | MCF7 breast | ACHN renal | HT29 colon | HCT-15 colon | SK-MEL-2 melanoma | SF-295 CNS | OVCAR-4 ovarian | HCT-116 colon | SW-620 colon | SR leukemia | UACC-62 melanoma | TK-10 renal | UO-31 renal | EKVX NSCLC | SF-268 CNS | HCC-2998 colon | M14 melanoma | NCI-H460 lung | NCI-H23 lung | K-562 leukemia | MALME-3M melanoma | SF-539 CNS | IGROV1 ovarian | SK-OV-3 ovarian | A549 NSCLC | LOX IMVI melanoma | SNB-75 CNS | HL-60(TB) leukemia | RXF 393 renal | NCI/ADR-RES ovarian | OVCAR-5 ovarian | NCI-H522 lung | HS 578T breast | SNB-19 CNS | CCRF-CEM leukemia | PC-3 prostate | MDA-MB-231 breast | OVCAR-3 ovarian | COLO 205 colon | SK-MEL-5 melanoma | RPMI-8226 leukemia | CAKI-1 renal | HOP-92 NSCLC | UACC-257 melanoma | U251 CNS | A498 renal | NCI-H226 lung | SN12C renal | SK-MEL-28 melanoma | MDA-MB-435 | OVCAR-8 ovarian | MOLT-4 leukemia

Reference: PubChem BioAssay (NCI)
